Experimental data published in the NIST ThermoML archive (doi:10.1021/acs.jced.6b00766).

Assay: mn = molality of the nth substance listed, in mol/kg
Conditions: 101.3 kPa, Liquid; for viscosity: Capillary tube (Ostwald / Ubbelohde) method; for mass density: Vibrating tube method

OC[C@@H](O)[C@H](O)[C@@H](O)CO [xylitol] + O
Conditions	mass density, m1 = 0.2 [kg/m3]	mass density, m1 = 0.4 [kg/m3]	mass density, m1 = 0.6 [kg/m3]	mass density, m1 = 0.8 [kg/m3]	mass density, m1 = 1 [kg/m3]	viscosity, m1 = 0.2 [mPa·s]	viscosity, m1 = 0.4 [mPa·s]	viscosity, m1 = 0.6 [mPa·s]	viscosity, m1 = 0.8 [mPa·s]	viscosity, m1 = 1 [mPa·s]
293.15 K	1008.15	1017.64	1026.71	1035.41	1043.78	1.079	1.161	1.25	1.348	1.443
303.15 K	1005.42	1014.74	1023.67	1032.22	1040.41	0.855	0.916	0.981	1.059	1.128
313.15 K	1001.85	1011.07	1019.85	1028.28	1036.38	0.697	0.744	0.794	0.851	0.904
323.15 K	997.56	1006.6	1015.35	1023.7	1031.65	0.582	0.617	0.657	0.701	0.741
